The record followed here is US10532066B2, “Surfactant lipids, compositions thereof, and uses thereof” (National Jewish Health, priority 2007, dated 2020).

“Also recorded” adds a separate entry of the source.

The test system of experiment [1] is Respiratory Syncytial Virus (RSV). Description: RSV-induced cytokine production in NHBE cells. The format is cell-based.
Another experiment deals with BALB/c mice. The experiment can be described thus: Sepsis model: intravenous LPS, intratracheal phospholipids. To be noted: LPS 50 μg i.v., phospholipids 50 μg intratracheal, 3 h. The format is in vivo, mouse. The method, then:
FIG. 10. Anionic phospholipids modulate lung inflammation induced by intravenously administered LPS. Phospholipids were dried under nitrogen and hydrated, and liposomes were formed using a Liposofast™. […] At the same time, LPS (50 μg) in 200 μl of PBS was intravenously administered to mice.
Next, the effect of phospholipids were examined in a sepsis model in mice. LPS (50 μG/200 μl) was intravenously administered to mice via the tail vein and phospholipids were administered intratracheally at the same time. Three hours after stimulation, BALF was collected (FIG. 10).

For another experiment, the system named is RSV. The experiment can be described thus: RSV plaque progression in Hep2 monolayers, lipid in agar overlay. The format is cell-based, Respiratory Syncytial Virus (RSV). The note with it: lipid in agar overlay 5 hours after virus, POPG 200-500 ug/ml, POPC 500 ug/ml, 5 days. The method, then:
Monolayers of Hep2 cells were subjected to RSV infection at levels that produce ca 100 plaques per well in quantitative plaque assays. The virus was incubated with the cells for 5 hours prior to agar overlay. The agar overlays contained either no additions, or POPG (200-500 ug/ml) or POPC (500 ug/ml).
The effects of POPG upon plaque formation as shown in Panel a of FIG. 39 were quantified in 3 independent experiments and are presented in this figure. The left panel of FIG. 40 provides the numbers of definite, and minute indefinite plaques formed in the absence and presence of POPG (200-500 ug/ml) as indicated. The right panel of FIG. 40 provides the numbers of definite plaques observed in the absence and presence of either POPG or POPC (200-500 ug/ml) as indicated.

In experiment [2] the test system is Respiratory Syncytial Virus (RSV). Description: Cytopathic effects of RSV upon BEAS2B cells (photomicrography). The format is cell-based. The method, then: Monolayers of BEAS2B cells were infected with RSV at a multiplicity of 3 for 72 h. Infections were performed on cells in either the absence or the presence of POPG (200 ug/ml). The cell monolayers were photographed at a magnification of 200×. Controls consisted of no viral challenge in either the presence or absence of POPG as indicated.
Monolayers of BEAS2B cells were infected with RSV at a multiplicity of 3 for 72 h. Infections were performed on cells in either the absence (b) or the presence (c,f) of POPG (200 ug/ml) and POPC (200 ug/ml) as indicated. Cells were photographed at a magnification of 200×. Controls (a,d,e) consisted of cell layers either not exposed to virus or exposed to POPG, and POPC in the absence of virus as indicated.
Monolayers of BEAS2B cells were infected with RSV at a multiplicity of 0.5-1, in either the presence or absence of 200 ug/ml POPG, or 200 ug/ml POPC, as indicated.
Monolayers of BEAS2B cells were either uninfected (CONL) or challenged with RSV at a multiplicity of 0.5/cell (RSV). Where indicated in the FIG. 44, RSV challenged cells were also treated with POPC (200 ug/ml) or POPG (200 ug/ml) liposomes; or POPG nanodiscs (nanoPOPG) at concentrations ranging from 100-300 ug/ml. Selected panels and fields are also shown at 400× magnification in FIG. 45.
Where indicated in FIG. 46, RSV challenged cells were also treated with nanodisc forms of dipalmitoyl-phosphatidylcholine (nanoDPPC), palmitoyl-oleoyl-phosphatidylcholine (nanoPOPC), or dioleoyl-phosphatidylcholine (nanoDOPC), dipalmitoyl-phosphatidylglycerol (nanoDPPG), dimyristoyl-phosphatidylglycerol (nanoDMPG), or dioleoyl-phosphatidylglycerol (nanoDOPG). At 72 h after infection, the cultures were examined by photomicrography at a magnification of 200×.

The target in another experiment is T1, TLR3 (Mus musculus, UniProt Q99MB1).
T1 construct: endogenous in cells; host or cells: RAW 264.7
T1 sequence (Q99MB1 26-905): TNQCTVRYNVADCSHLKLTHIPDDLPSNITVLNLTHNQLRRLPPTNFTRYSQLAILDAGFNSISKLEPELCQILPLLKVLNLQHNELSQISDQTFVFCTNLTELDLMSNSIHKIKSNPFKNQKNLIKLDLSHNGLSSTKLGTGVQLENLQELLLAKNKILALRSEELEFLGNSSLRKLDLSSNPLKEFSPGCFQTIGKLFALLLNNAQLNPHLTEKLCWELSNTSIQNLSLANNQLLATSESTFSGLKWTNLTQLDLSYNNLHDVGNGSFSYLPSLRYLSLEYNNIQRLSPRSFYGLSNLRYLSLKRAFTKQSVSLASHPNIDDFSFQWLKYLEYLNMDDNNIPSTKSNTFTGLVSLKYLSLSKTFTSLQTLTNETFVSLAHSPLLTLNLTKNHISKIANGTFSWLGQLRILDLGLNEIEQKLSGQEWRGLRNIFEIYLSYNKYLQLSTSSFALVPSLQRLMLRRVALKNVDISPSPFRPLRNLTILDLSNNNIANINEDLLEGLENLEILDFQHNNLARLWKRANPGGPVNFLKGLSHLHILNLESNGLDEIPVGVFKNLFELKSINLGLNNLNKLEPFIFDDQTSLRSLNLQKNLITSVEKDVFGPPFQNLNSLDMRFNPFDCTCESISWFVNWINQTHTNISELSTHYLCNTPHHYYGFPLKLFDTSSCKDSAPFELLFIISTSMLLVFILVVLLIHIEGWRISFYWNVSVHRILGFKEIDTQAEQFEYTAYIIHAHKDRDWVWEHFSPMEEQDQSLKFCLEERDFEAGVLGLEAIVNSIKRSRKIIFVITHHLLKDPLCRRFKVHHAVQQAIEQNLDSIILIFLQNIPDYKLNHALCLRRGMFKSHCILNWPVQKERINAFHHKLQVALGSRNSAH
Description: TLR agonist TNFα production in RAW 264.7 cells, TLR3. To be noted: poly IC, 24 h. The format is cell-based. The method, then: (§1) In this experiment, multiple TLRs were stimulated with defined TLR agonists for 24 h and the TNFα production was measured. In each case, the maximal stimulation by agonist is set at 100% and the antagonism by POPG is expressed as the relative % response. The Controls consist of no treatment, or treatment with POPG in the absence of agonist as indicated. The agonists for the TLRs consist of Pam3Cys for TLR1/2, Mycoplasma pneumoniae membranes as an agonist for TLR2, mycoplasma derived MALP2 as an agonist for TLR 2/6, double stranded RNA (poly IC) for TLR3, Gram-negative lipopolysaccharide for TLR4, and CpG rich DNA as an agonist for TLR9. The TLR4 panel also contains the antagonist polymyxin B (PB) for comparison with POPG.

Experiment [3] has as its system Respiratory Syncytial Virus (RSV). The experiment can be described thus: Cytopathic effects of RSV upon NHBE cells (photomicrography). The format is cell-based. As for the experimental part: Monolayers of NHBE cells were infected with RSV at a multiplicity of 3 for 72 h. Infections were performed on cells in either the absence or the presence of POPG (200 ug/ml). The cell monolayers were photographed at a magnification of 200×. Controls consisted of no viral challenge in either the presence or absence of POPG as indicated.
Monolayers of NHBE cells were infected with RSV at a multiplicity of 3 for 72 h. Infections were performed on cells in either the absence (b) or the presence (c,f) of POPG (200 ug/ml) and POPC (200 ug/ml) as indicated. Cells were photographed at a magnification of 200×. Controls (a,d,e) consisted of cell layers either not exposed to virus or exposed to POPG, and POPC in the absence of virus as indicated.
Monolayers of normal human bronchial epithelial cells were infected with RSV at a multiplicity of 0.5-1, in either the presence or absence of 200 ug/ml POPG, or 200 ug/ml POPC, as indicated.
A general note: Damage to the host cells serves as the signal in cytopathic effect assays.

A further experiment concerns the target T2, TLR1 (Mus musculus, UniProt Q9EPQ1).
T2 construct: endogenous in cells; host or cells: RAW 264.7
Description: TLR agonist TNFα production in RAW 264.7 cells, TLR1. The format is cell-based. The note with it: Pam3Cys, 24 h. The method, then: as §1

For another experiment, the target named is T3, TLR9 (Mus musculus, UniProt Q9EQU3).
T3 construct: endogenous in cells; host or cells: RAW 264.7
T3 sequence (Q9EQU3 26-1032): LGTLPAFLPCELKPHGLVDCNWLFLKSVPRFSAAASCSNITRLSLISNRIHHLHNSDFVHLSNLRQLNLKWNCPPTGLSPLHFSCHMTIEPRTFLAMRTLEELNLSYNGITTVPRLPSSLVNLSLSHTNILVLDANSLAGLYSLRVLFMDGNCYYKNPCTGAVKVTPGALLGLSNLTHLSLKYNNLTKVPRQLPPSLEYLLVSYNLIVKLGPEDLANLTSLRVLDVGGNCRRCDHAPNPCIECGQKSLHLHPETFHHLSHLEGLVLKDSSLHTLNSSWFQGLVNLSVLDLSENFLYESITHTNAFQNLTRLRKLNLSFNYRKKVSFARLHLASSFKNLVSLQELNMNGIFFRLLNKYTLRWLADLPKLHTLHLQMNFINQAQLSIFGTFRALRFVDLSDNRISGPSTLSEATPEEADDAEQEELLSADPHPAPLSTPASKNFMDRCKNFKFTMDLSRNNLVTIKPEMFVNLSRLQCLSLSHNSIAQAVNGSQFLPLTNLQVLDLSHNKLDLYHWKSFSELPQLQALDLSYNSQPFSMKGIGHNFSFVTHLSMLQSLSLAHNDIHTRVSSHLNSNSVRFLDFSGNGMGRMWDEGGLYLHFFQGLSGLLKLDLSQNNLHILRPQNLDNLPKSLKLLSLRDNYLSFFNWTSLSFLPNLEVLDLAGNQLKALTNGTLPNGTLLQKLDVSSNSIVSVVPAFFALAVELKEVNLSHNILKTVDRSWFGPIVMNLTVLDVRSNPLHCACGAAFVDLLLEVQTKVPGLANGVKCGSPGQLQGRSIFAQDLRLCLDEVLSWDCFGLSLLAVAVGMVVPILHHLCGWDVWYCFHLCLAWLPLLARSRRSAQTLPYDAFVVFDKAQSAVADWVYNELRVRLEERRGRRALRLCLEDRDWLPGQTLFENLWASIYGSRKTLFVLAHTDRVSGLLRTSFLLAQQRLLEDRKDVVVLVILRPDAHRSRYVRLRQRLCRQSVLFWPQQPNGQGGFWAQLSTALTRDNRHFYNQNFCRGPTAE
The experiment can be described thus: TLR agonist TNFα production in RAW 264.7 cells, TLR9. The format is cell-based. The note with it: CpG rich DNA, 24 h. As for the experimental part: as §1

Another experiment deals with TLR4. Description: TLR agonist TNFα production in RAW 264.7 cells, TLR4. The format is cell-based. To be noted: lipopolysaccharide, 24 h. As for the experimental part:
as §1

Where [4] appears, read: RSV multiplicity 3, 48 h, lipid 200 ug/ml.
Where [5] appears, read: multiplicity 0.5-1, 72 h, 200 ug/ml.
The mark [6] stands for this setting: multiplicity 3, 72 h, lipid 200 ug/ml.

T2 sequence (Q9EPQ1 26-795): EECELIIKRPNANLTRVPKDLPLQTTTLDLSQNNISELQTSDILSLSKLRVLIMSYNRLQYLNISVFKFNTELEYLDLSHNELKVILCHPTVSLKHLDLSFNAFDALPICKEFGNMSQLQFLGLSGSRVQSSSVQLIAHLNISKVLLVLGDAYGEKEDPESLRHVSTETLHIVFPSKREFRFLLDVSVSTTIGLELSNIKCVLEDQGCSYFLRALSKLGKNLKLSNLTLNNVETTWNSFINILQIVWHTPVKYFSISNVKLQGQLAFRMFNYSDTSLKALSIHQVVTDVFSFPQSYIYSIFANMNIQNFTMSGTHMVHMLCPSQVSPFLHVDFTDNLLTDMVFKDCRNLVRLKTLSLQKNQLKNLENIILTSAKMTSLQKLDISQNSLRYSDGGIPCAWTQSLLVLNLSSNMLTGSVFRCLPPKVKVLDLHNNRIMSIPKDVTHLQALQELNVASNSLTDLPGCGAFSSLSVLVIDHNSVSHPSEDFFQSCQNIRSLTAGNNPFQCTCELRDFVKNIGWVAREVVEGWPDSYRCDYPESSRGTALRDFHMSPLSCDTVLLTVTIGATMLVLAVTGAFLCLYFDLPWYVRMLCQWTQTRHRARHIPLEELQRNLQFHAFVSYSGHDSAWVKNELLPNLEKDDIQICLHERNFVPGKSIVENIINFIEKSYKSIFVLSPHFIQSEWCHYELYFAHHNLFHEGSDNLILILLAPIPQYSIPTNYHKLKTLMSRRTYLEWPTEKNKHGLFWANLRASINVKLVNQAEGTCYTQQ

`CCCCCCCC/C=C\CCCCCCCC(=O)O[C@H](COC(=O)CCCCCCCCCCCCCCC)COP(=O)(O)OCC(O)CO` (stereo partly shown) [POPG, palmitoyl-oleoyl-phosphatidylglycerol]: the “inflammatory cytokine production (IL-6, IL-8)” value in experiment [1] (RSV multiplicity 0.5-1, 48 h, 200 ug/ml) is listed as “suppresses”. In addition, in experiment [1] (setting [4]), the IL-6 production entry is “inhibits” and the IL-8 production result is “inhibits”. Besides, in the experiment on BALB/c mice, the “KC levels in BALF” value is given as “significantly attenuated”, the “MIP-2 levels in BALF” value is on record as “significantly attenuated”, the “TNF-α secretion in BALF” value is given as “significantly inhibited” and the “infiltration of neutrophils in BALF” value is listed as “effectively inhibited”. In the experiment with RSV, the “progression of RSV infection (plaques)” value is recorded as “arrests the progression; also recorded: indefinite minute plaques”. Also, the “killing of cells by RSV” value in [2] (setting [5]) is reported as “prevents the killing”. In addition, the “cytopathic effects of RSV” value in experiment [2] (setting [6]) is “prevents the cytopathic effects”. Besides, the “activity of TLR3 (TNFα production)” value on TLR3 was “inhibits”. In experiment [3] (setting [5]), the “killing of cells by RSV” value was “prevents the killing”. Further, in experiment [3] (setting [6]), the “cytopathic effects of RSV” value was “prevents the cytopathic effects”. The “activity of TLR1 (TNFα production)” value at TLR1 is reported as “inhibits”. Also, the “activity of TLR9 (TNFα production)” value at TLR9 is listed as “not”. The “activity of TLR4 (TNFα production)” value in the experiment on TLR4 is given as “inhibits”.
